Consider 16 molecules from patent publication US6403561B1, “Tripeptidylpeptidase inhibitors” (Institut National de la Sante et de la Recherche Medicale …, priority 1998, dated 2002).

The target in data set [1] is T1, liver TPP II (Mus musculus, UniProt Q64514).
T1 construct: measuring the residual catalytic activity on membranes from brain or from a peripheral organ; from tissue; host or cells: mouse liver (membranes), ex vivo after oral dosing
Briefly: Inhibitory activity of TPP II ex vivo after administration to a rodent. Type of data set: in vivo. The note with it: mice, 90 minutes after oral administration of 10 mg/kg. Here is the method:
This test is completed by an evaluation of the inhibitory activity of TPP II “ex vivo”, which consists in administering a compound according to the invention to a rodent and in measuring the residual catalytic activity on membranes from brain or from a peripheral organ.
For example, the activity of liver TPP II measured in mice 90 minutes after oral administration of 10 mg/kg of the compound of Example 9 is about 90-100% inhibited.

The target in data set [2] is membrane-bound tripeptidylpeptidase II (Rattus norvegicus, UniProt Q64560). Briefly: Measurement of the activity of membrane-bound tripeptidylpeptidase (release of Amc from A-AP-Amc, fluorimetry). The note with it: apparent dissociation constant calculated from the 50% inhibitory concentration and the KM of the substrate (23 μM), rat brain membranes, 50 μM A-AP-Amc.
membrane-bound tripeptidylpeptidase II, sequence (Q64560 whole entry): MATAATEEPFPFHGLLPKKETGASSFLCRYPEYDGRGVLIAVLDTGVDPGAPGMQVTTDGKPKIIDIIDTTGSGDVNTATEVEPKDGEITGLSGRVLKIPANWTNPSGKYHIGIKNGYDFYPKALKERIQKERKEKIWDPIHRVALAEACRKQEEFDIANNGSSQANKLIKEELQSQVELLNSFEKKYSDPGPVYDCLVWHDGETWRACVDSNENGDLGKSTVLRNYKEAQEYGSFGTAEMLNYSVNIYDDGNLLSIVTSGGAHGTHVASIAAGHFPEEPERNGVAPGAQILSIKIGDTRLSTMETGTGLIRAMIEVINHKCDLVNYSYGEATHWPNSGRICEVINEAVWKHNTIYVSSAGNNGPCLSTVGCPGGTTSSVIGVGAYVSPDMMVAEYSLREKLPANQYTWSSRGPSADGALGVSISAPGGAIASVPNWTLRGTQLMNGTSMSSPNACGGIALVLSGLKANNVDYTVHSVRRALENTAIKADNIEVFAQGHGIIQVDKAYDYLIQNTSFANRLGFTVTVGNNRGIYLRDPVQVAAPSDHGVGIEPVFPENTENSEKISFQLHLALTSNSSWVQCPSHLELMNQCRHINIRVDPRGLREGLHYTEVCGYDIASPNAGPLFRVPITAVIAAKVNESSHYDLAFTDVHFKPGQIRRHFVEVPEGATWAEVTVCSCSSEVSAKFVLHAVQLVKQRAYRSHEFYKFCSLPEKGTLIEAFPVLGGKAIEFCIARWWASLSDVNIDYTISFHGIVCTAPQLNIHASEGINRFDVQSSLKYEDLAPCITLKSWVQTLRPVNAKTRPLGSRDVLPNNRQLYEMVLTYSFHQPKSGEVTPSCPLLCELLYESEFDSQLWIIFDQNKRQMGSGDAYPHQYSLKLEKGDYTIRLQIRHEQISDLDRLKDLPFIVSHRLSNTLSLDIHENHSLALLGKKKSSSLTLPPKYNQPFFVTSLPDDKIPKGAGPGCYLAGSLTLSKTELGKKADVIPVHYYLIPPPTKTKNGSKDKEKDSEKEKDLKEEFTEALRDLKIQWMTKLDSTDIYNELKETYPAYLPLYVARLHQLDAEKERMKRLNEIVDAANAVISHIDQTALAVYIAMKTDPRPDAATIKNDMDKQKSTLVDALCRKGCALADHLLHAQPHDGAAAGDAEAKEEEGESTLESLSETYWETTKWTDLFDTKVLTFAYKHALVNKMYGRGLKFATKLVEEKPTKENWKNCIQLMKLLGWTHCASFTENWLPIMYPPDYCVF
Procedure: Membranes from rat brain were obtained by centrifugation (200,000×g min) of a homogenate prepared in 10 volumes of 50 mM potassium phosphate buffer, pH 7.4.
After washing thoroughly, the centrifugation pellet is taken up in the buffer containing 10% glycerol and 0.1% Brij 35 in order to obtain a concentration of 25 mg of proteins/ml.
The release of Amc is evaluated by fluorimetry.
In data set [3] the test system is endogenous CCK-8. Briefly: Protection of endogenous CCK-8 released from slices of depolarized rat cerebral cortex (radioimmunoassay). Type of data set: cell-based. The note with it: concentration of 1 μM. Here is the method: At a concentration of 1 μM, it multiplies the recovery of released CCK-8 4-fold (measured by radioimmunoassay).
A short description of data set [4]: Anorexigenic (pro-satiety) activity: spontaneous taking of solid food. In kind it is in vivo. The note with it: mice, 10 mg/kg intravenously, 30 to 90 minutes after free access to food, after overnight fasting. The method, then: In mice, at a dose of 10 mg/kg (intravenously), this compound decreases the spontaneous taking of solid food (“UAR” tablet) by 45%, measured over a period of 30 to 90 minutes after free access to this food (period preceded by fasting overnight and oral administration of 0.2 ml of a semi-liquid meal).

Where a name gives a salt, the structure may show the parent alone. Where a SMILES comes first, the peptide text is derived from it. [ ]: non-standard residue; d: D form. The star is where a group is joined. Oic = O=C(O)[C@@H]1C[C@@H]2CCCC[C@@H]2N1; Abu = CC[C@H](N)C(=O)O; NHBu = CCCCN*

T1 sequence (Q64514 whole entry): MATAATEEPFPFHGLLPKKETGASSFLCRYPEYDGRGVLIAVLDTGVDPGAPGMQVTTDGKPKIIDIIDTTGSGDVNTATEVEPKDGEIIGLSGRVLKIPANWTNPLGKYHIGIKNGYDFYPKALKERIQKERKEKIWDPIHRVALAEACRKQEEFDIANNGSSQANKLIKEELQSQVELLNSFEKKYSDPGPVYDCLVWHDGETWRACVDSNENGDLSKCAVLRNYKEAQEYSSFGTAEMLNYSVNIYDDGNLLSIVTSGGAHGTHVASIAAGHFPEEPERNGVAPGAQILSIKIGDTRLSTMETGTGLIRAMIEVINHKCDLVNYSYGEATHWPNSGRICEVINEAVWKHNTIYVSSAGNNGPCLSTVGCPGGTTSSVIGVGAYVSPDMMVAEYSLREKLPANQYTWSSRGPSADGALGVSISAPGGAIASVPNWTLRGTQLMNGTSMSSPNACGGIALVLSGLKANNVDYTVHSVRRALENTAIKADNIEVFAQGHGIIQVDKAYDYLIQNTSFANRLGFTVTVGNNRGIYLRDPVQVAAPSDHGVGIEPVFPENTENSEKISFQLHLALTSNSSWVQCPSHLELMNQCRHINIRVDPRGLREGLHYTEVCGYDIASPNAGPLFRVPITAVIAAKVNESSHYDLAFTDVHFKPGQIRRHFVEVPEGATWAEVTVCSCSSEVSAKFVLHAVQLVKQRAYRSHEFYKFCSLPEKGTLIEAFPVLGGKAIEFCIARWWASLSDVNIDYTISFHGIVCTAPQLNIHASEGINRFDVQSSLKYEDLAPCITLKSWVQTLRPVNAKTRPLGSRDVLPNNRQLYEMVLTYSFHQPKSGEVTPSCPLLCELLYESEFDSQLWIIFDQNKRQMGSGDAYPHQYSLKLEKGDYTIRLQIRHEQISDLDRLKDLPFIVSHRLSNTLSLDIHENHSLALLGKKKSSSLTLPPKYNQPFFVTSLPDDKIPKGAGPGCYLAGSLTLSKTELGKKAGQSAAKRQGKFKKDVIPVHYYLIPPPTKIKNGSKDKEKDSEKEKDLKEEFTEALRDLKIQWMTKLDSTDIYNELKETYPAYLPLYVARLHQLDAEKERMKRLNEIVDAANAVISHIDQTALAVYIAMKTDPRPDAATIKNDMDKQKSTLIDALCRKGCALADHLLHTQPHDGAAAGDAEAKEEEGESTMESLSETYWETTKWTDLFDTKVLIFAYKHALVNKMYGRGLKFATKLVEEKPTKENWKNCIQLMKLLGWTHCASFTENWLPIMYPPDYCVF

`CCCCNC(=O)C1Cc2cc(F)ccc2N1C(=O)[C@@H](N)CC` (mixture of isomers) (as salt: oxalate) [Example 20, 1-(2(S)-aminobutyryl)-2(R/S)-(5-fluoro)indolinecarboxylic Acid N-butylamide] had a melting point of 105 to 110 °C.
`CCCCNC(=O)C1c2ccccc2CN1C(=O)[C@@H](N)CC` (mixture of isomers) (as salt: oxalate) [Example 23, 2-(2(S)-aminobutyryl)-1-(R/S)-isoindolinecarboxylic Acid N-butylamide] displayed a melting point of 90 to 92 °C.
Still for that read-out and setting: the same measure for `CCCCNC(=O)C1Cc2cc(OC)ccc2N1C(=O)[C@@H](N)C(C)C.O=C(O)C(=O)O` (mixture of isomers) [Example 24, 1-(L-valyl)-5-methoxyindoline-2(R/S)-carboxylic Acid Butylamide Oxalate]: 112 to 120 °C; for `CCCCNC(=O)C1Cc2cc(OC)ccc2N1C(=O)[C@H](C)N.O=C(O)C(=O)O` (mixture of isomers) [Example 25, 1-(L-alanyl)-5-methoxyindoline-2(R/S)-carboxylic Acid Butylamide Oxalate]: 112 to 118 °C; for `CCCCNC(=O)C1Cc2c(OC)cccc2N1C(=O)[C@@H](N)CC.O=C(O)C(=O)O` (mixture of isomers) [Example 27, 1-(2(S)-aminobutyryl)-4-methoxyindoline-2(R/S)-carboxylic Acid Butylamide Oxalate]: 117 to 119 °C.
The same measure, in the same setting: in the case of `CCCCNC(=O)C1N(C(=O)[C@@H](N)CC)c2ccccc2C1(C)C.O=C(O)C(=O)O` (mixture of isomers) [Example 28, 1-(2(S)-aminobutyryl)-3,3-dimethylindoline-2(R/S)-carboxylic Acid Butylamide Oxalate] it was 127 to 133 °C.
Still for that read-out and setting: in the case of `CCCCNC(=O)C1Cc2c(ccc(OC)c2OC)N1C(=O)[C@@H](N)CC.O=C(O)C(=O)O` (mixture of isomers) [Example 32, 1-(2(S)-aminobutyryl)-4,5-dimethoxyindoline-2(R/S)-carboxylic Acid Butylamide Oxalate] it was 196.1 to 197.5 °C; in that of `CCCCNC(=O)C1Cc2cc(O)ccc2N1C(=O)[C@@H](N)CC.O=C(O)C(=O)O` (mixture of isomers) [Example 34, 1-2(S)-aminobutyryl-5-hydroxyindoline-2(R/S)-carboxylic Acid Butylamide Oxalate], 129 to 130 °C; in that of `CCCCNC(=O)C1Cc2cc(C)ccc2N1C(=O)[C@@H](N)CC.O=C(O)C(=O)O` (mixture of isomers) [Example 35, 1-2(S)-aminobutyryl-5-methylindoline-2(R/S)-carboxylic Acid Butylamide Oxalate], 110 to 112 °C.
On to `CC(C)[C@H](NC(=O)[C@@H]1CCCN1C(=O)[C@H](C)N)B1OC2CC3CC(C3(C)C)C2(C)O1` (stereo partly drawn) [Example 9, L-alanyl-L-prolyl-L-borovaline pinanediol ester], for which the “inhibition of the activity of liver TPP II” value in data set [1] is 90-100%. Moreover, the Ki in data set [2] is 0.3 nM.
For the molecule `CCNC(=O)[C@@H]1Cc2ccccc2N1C(=O)[C@@H](N)CC` [Example 17, 1-(2(S)-aminobutyryl)-2(s)-indolinecarboxylic Acid ethylamide], the melting point lay in the range of 115 to 120 °C.
As to `CCCCNC(=O)[C@@H]1C[C@@H]2CCCC[C@@H]2N1C(=O)[C@@H](N)CC` [Example 22, 1-(2(S)-aminobutyryl)-2(S)-[(3aS,7aS)-perhydro]indolinecarboxylic Acid N-butylamide] (H-[Abu]-[Oic]-NHBu), in data set [3], the “recovery of released CCK-8” value is recorded as 4 fold. Besides, the “decrease of the spontaneous taking of solid food” value in data set [4] was found to be 45%. For the same molecule, the Ki in data set [2] (Ki) was 560 nM.
`CCCCNC(=O)[C@@H]1Cc2cc(OC)ccc2N1C(=O)[C@H](C)N.O=C(O)C(=O)O` [Example 26, 1-(L-alanyl)-5-methoxyindoline-2(S)-carboxylic Butylamide Oxalate] displayed a melting point of 141 to 143 °C. The Ki in data set [2] (Ki) is 7.5 nM.
The corresponding values for `CCCCNC(=O)[C@@H]1Cc2c(OCC)cccc2N1C(=O)[C@@H](N)CC.O=C(O)C(=O)O` [Example 31, 1-(2(S)-aminobutyryl)-4-ethoxyindoline-2(S)-carboxylic Acid Butylamide Oxalate] are 144.7 to 146.2 °C and 29 nM.
In the same order, the values of `CCCCNC(=O)[C@@H]1Cc2cc(O)ccc2N1C(=O)[C@@H](N)CC.O=C(O)C(=O)O` [Example 33, 1-(2(S)-aminobutyryl)-5-hydroxyindoline-2(S)-carboxylic Acid Butylamide Oxalate] are 156.5 to 158 °C and 6.6 nM.
`CCCCNC(=O)[C@@H]1Cc2cc(Cl)ccc2N1C(=O)[C@@H](N)CC.O=C(O)C(F)(F)F` [Example 36, 1-(2(S)-aminobutyryl)-5-chloroindoline-2(S)-carboxylic Acid Butylamide Trifluoroacetate]: the melting point was 83 to 84 °C.

The term melting point denotes the temperature of the solid-liquid transition.
